Assay results as given in PubChem BioAssay (NCI).
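Cells were grown in 96-well plates and exposed to each compound for 48 hours at five concentrations; endpoints were interpolated linearly between bracketing concentrations, or set to the highest concentration if not reached. TGI marks complete inhibition of growth.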

Key:
Assay in all cases: NCI anticancer screen, dose series, 48 h
[1] = test system: A498 renal
[2] = test system: ACHN renal
[3] = test system: BT-549 breast
[4] = test system: CAKI-1 renal
[5] = test system: CCRF-CEM leukemia
[6] = test system: COLO 205 colon
[7] = test system: EKVX NSCLC
[8] = test system: HOP-92 NSCLC
[9] = test system: K-562 leukemia
[10] = test system: MDA-MB-231 breast
[11] = test system: MDA-MB-435
[12] = test system: MOLT-4 leukemia
[13] = test system: NCI-H460 lung
[14] = test system: OVCAR-5 ovarian
[15] = test system: OVCAR-8 ovarian
[16] = test system: SK-MEL-5 melanoma
[17] = test system: SN12C renal
[18] = test system: U251 CNS
[19] = test system: UACC-257 melanoma
[20] = test system: UACC-62 melanoma

| Structure (SMILES) | TGI [1] [µM] | TGI [2] [µM] | TGI [3] [µM] | TGI [4] [µM] | TGI [5] [µM] | TGI [6] [µM] | TGI [7] [µM] | TGI [8] [µM] | TGI [9] [µM] | TGI [10] [µM] | TGI [11] [µM] | TGI [12] [µM] | TGI [13] [µM] | TGI [14] [µM] | TGI [15] [µM] | TGI [16] [µM] | TGI [17] [µM] | TGI [18] [µM] | TGI [19] [µM] | TGI [20] [µM] |
| --- | --- | --- | --- | --- | --- | --- | --- | --- | --- | --- | --- | --- | --- | --- | --- | --- | --- | --- | --- | --- |
| COC(=O)[C@]1(c2cc3ccccc3[nH]2)CC2CN(CC(=O)N(C)OC)C1C1OC(C)(C)OC21 (stereo not given in full) | 91.7 | > 100 | > 100 | > 100 | > 100 | > 100 | > 100 | > 100 | > 100 | > 100 | > 100 | 49.9 | > 100 | > 100 | > 100 | > 100 | > 100 | > 100 | > 100 | > 100 |
| C=C1C(=O)C=C2C=C3C(=O)C(C)(C)C[C@]3(O)C12C (stereo not given in full) | 23.2 | 4.53 | 3.05 | 3.99 | 1.37 | 3.53 | 51.2 | 3.24 | 3.98 | 7.59 | 32.6 | 2.28 | 38.2 | 21.4 | 29.3 | 19 | 23.9 | 34 | 9.13 | 17.8 |
| O=S(=O)(Nc1ccccc1S(=O)(=O)c1ccccc1)c1ccccc1 | > 100 | > 100 | > 100 | > 100 | > 100 | > 100 | 97 | > 100 | > 100 | > 100 | > 100 | > 100 |  | > 100 | > 100 | > 100 | > 100 | > 100 | > 100 | > 100 |
| Cc1c(-c2ccccc2)n(C)c2cn[nH]c(=O)c12 | > 100 | > 100 | > 100 | > 100 | > 100 | 32 | > 100 | > 100 | > 100 | 36.9 | > 100 | > 100 | > 100 | > 100 | > 100 | 31.8 |  | > 100 | > 100 | > 100 |
| C[C@H](CCc1nc(C#N)c(N)o1)[C@H]1CC[C@H]2[C@@H]3[C@@H](O)CC4C[C@@H](O)CC[C@]4(C)[C@H]3C[C@@H](O)[C@]12C (stereo not given in full) | > 100 | > 90 | 25.3 | > 100 | > 25.2 | 40.5 | 98.1 | 67 | 86.4 | 67.1 | 48.8 | > 59.7 | 54.9 | 58.3 | 41.7 | 40.9 | > 79.6 | 49.5 | 50.6 | 30.5 |
| CCCCc1ccc(Nc2nc(Cl)c3[nH]cnc3n2)cc1 | 55.4 | > 100 | 65.4 | 54.1 | > 100 | 43.4 | > 100 | 26.3 | > 100 | 30.2 | 32.1 | > 100 |  | > 100 | 37.3 | 31.6 | 49.9 |  | 30.8 | 31.9 |
| COC(=O)C(Cc1ccccc1)NS(=O)(=O)c1ccc(-c2c3nc(c(-c4ccc(S(=O)(=O)NC(Cc5ccccc5)C(=O)OC)cc4)c4ccc([nH]4)c(-c4ccc(S(=O)(=O)NC(Cc5ccccc5)C(=O)OC)cc4)c4nc(c(-c5ccc(S(=O)(=O)NC(Cc6ccccc6)C(=O)OC)cc5)c5ccc2[nH]5)C=C4)C=C3)cc1 (stereo not given) | > 100 | > 100 | > 100 | > 100 | > 100 | > 100 | > 100 | > 100 | > 100 | > 100 | > 100 | > 100 | > 100 | > 100 | > 100 | > 100 | > 100 | > 100 | > 100 | > 100 |
| COc1ccc(OC)c(C2CCc3cnc4nc(N)nc(N)c4c3C2)c1 (stereo not given) | > 100 | > 100 | > 100 | > 100 | > 100 | > 100 | > 100 | > 100 | > 100 | > 100 | > 100 | > 100 | > 100 | > 100 | > 100 | > 100 | > 100 | > 100 | > 100 | > 100 |
| COc1cc2c(cc1OC)-c1cc3ccccc3c(=O)n1CCC2 | 31.5 | > 100 | 89.2 | 44.9 | 33.9 | > 60.2 | > 100 | 68.3 | > 81.9 | 57.2 | > 53.7 | 10.4 | 11.2 | > 100 | 61.2 | 28 | 78.9 | > 65.7 | > 86.1 | 36.5 |
| CCC(=S)N(C)O | > 100 | > 100 | > 100 | > 100 | 12.3 | > 79 | > 100 | > 100 | > 79.8 | > 100 | > 100 | 46.9 | 70.3 | > 100 | > 97.1 | 51 | > 100 | > 100 | > 100 | 78.3 |
| Cn1cc(-c2ccc(CCOC3CCCCO3)cc2)c2c(C#N)cccc21 (stereo not given) | > 100 |  | > 100 | > 100 | > 100 | 67.5 | > 100 | > 100 | > 100 | > 100 | > 100 | > 100 | > 100 | > 100 | > 100 | > 100 | > 100 | > 100 | > 100 | > 100 |
| COC(=O)C1=NN2c3ccccc3CN([C@@H](C)c3ccccc3)C(=O)[C@@H]2C1 | > 100 | > 100 | 64.9 | 77.7 | > 100 | > 100 | > 100 | > 100 | 76.6 | > 100 | 34 | 46.5 | > 100 | > 100 | > 100 | 32.7 | > 100 | > 100 | > 100 | 66.8 |
| CC(C)C1OCC(CO)CO1 (stereo not given) | > 100 | > 100 | > 100 | > 100 | > 100 | > 100 | > 100 | > 100 |  | > 100 | > 100 | > 100 | > 100 | > 100 | > 100 | > 100 | > 100 | > 100 | > 100 | > 100 |
| CCOC(=O)c1sc2nc(SC)nc(Nc3ccc(OC)c(OC)c3)c2c1N | 37.3 | > 100 | > 100 | > 100 | > 100 | > 100 | > 100 | 25.4 | > 100 | 82.4 | > 100 |  | > 100 | > 100 | > 100 | > 100 | > 100 | > 100 | > 100 | > 100 |
| CN1c2ccccc2C2c3c(O)ccc(O)c3C=C([N+](=O)[O-])C21 (stereo not given) | 5.47 | 1.97 | 13.6 | 5.16 | > 100 | 8.55 | 7.63 | 5.84 | > 100 | 7.44 | 0.366 | > 27.4 | 6.02 | 5.87 |  | 1.89 |  | 4.84 | 0.516 | 2.66 |
| COc1cc(/C=C2\NC(=O)N(/C=C3\C(=O)Oc4ccccc4C3=O)C2=O)ccc1O | > 100 | > 100 | > 100 | > 100 | 92.6 | > 100 | > 100 | > 100 | > 100 | > 100 | > 100 | > 100 | > 100 | > 100 | > 100 | > 100 | > 100 | > 100 | > 100 | > 100 |
| CCCCNc1nc(SC)nc2nc[nH]c12 | > 89.2 | > 100 | > 100 | > 100 | > 100 | > 100 | > 100 | > 100 | > 100 | > 100 | > 100 | > 100 | > 100 | > 100 | > 100 | > 100 | > 100 | > 100 | > 100 | > 100 |
| Cc1cc2c3c(ccc4ncc(c43)CN2c2ccc(NS(C)(=O)=O)cc2)[nH]1 | > 100 | > 100 | > 100 | 64.5 | > 100 | > 100 | > 100 | 92.2 | > 100 | 68.1 | > 100 | > 100 | > 100 | > 100 | > 100 | > 100 |  | > 100 | > 100 | > 100 |
